US11691984B2, “Compounds and methods for DCAF-mediated protein degradation” (The Scripps Research Institute, priority 2018, dated 2023)

Test system: HEK293T cells
Assay: Cell viability assay (Cell Titer Glo)
Format: cell-based, human
Experimental: HEK293T cells were seeded in 96-well clear bottom white plate (Corning) at 3×10^4 cells per well in 100 μL of DMEM medium and grown for 24 h. The cells were treated with 0.625, 1.25, 2.5, 5, 10, 20 and 40 μM of KB02-SLF or KB02-JQ1 (DMSO stock, final DMEM concentration is 0.1% (v/v)) in 100 μL of DMEM medium for 24 h. 50 μL of Cell Titer Glo reagent (Promega) was added to each well and incubate for 10 min at room temperature. The luminescence was read on CLARIOstar (BMG LAB TECH).

CCC(C)(C)C(=O)C(=O)N1CCCC[C@H]1C(=O)O[C@H](CCc1ccc(OC)c(OC)c1)c1cccc(NC(=O)CCOCCOCCNC(=O)COc2ccc3c(c2)CCCN3C(=O)CCl)c1 [KB02-SLF, (R)-1-(3-(3-(2-(2-(2-((1-(2-chloroacetyl)-1,2,3,4-tetrahydroquinolin-6-yl)oxy)acetamido)ethoxy)ethoxy)propanamido)phenyl)-3-(3,4-dimethoxyphenyl)propyl (S)-1-(3,3-dimethyl-2-oxopentanoyl)piperidine-2-carboxylate]
test concentrations with evidence of cytotoxicity: > 10 µM
